Reference: patent US4785080A, “Labeled analytes” (Baker Instruments Corporation, priority 1985, dated 1988)
Values joined by “and” are separate entries in the source; they are usually repeats but may differ in a detail not shown here. Equal entries are not always repeated.

How the values were obtained:
Format in all cases: binding
dilantin antibody [1] = experiment: Heterogeneous double antibody solid phase immunoassay of dilantin, free phase catalytic activity (Example XXII)
Method: A standard displacement curve is generated from the catalytic activity measurement using 5'-O-acetyluridyl-3'-(4-methylumbelliferone-7-yl) phosphate as a fluorogenic substrate for determination of analyte concentration of the control serum.
(§1) The following reagents were prepared:
a. Dilantin-S-peptide labeled analyte: Labeled analyte in TEA-HCl buffer was prepared in the manner described in Examples V-VIII; 120 ul was diluted with 2860 ul of TEA-HCl buffer.
b. Antibody: Anti-dilantin antisera (300 ul) was diluted with 1800 ul of TEA-HCl buffer.
c. Solid phase immobilized second antibody: Bio-Rad IMMUNOBEAD™, Lot 17003, 50 mg was reconstituted with 50 ml of TEA-HCl buffer.
d. Substrate: 5'-O-acetyl-2'-O-(tetrahydropyran-2-yl) uridyl-3'-(4-methylumbelliferone-7-yl) ammonium phosphate, 35 mg, was deblocked with 1.5 ml of 0.025M HCl for 40 minutes at room temperature and extracted twice with 5 ml of ether. The residual ether was removed by the stream of air and the acidic solution was buffered with acetate buffer to 100 ml.
e. Acetate buffer: Sodium acetate buffer, 0.1M, pH 5.0.
f. TEA-HCl buffer: Triethanolamine-HCl buffer, 0.05M, pH 7.5.
g. […]
h. S-protein: Sigma purified solution was diluted 1/20 in acetate buffer.
[…] Antibody aliquots of 100 ul were pipetted into each duplicate tube of standards and the resulting mixtures were vortexed and incubated for 20 minutes at room temperature. Dilantin-S-peptide labeled analyte aliquots of 100 ul each were then pipetted into all tubes. The resulting mixture was incubated for 20 mintes at room temperature.
TEA-HCl buffer (108 ul), and Dilantin-S-peptide labeled analyte (100 ul) were pipetted into duplicate assay tubes labeled total. The resulting mixtures were mixed by vortexing and incubated for 20 minutes at room temperature.
Next a second antibody solution of 500 ul each was pipetted into all tubes except for total assay tubes. TEA-HCl buffer (500 ul) was pipetted into total assay tubes. The resulting mixtures were mixed by vortexing and were incubated for 60 minutes at room temperature. All assay tubes except total were centrifuged for 5 minutes at 3000 rpm at 5°-10° C.
The supernatant (free phase) of each tube was transferred into new tubes marked accordingly. The solid phase was resuspended with 0.5 ml of TEA buffer in each tube and centrifuged as above. The supernatant was decanted off.
Dose responsive catalytic activity was measured as follows:
An aliquot sample (50 ul each) of the free phase and total were assayed respectively with 1.8 ml of substrate and 50 ul of S-protein, measuring the fluorogenic product formation by emission at 440 nm when the mixture was excited at 325 nm, using a. Farrand Mark 1 fluorimeter.
The raw data were fit by a modified log-logit algorithm where the rates at infinite and 0 standard concentrations are obtained by an iterative procedure. Each data point in the Table represents the mean of duplicate points.

dilantin antibody [2] = experiment: Reference displacement curve for dilantin, colorimetric, CentrifiChem 500 (Example XX)
Method: This Example illustrates the generation of a reference displacement curve for the dilantin analyte on the CentrifiChem®500 centrifugal fast analyzer. A […] substrate, 5'-O-acetyl-uridine-3'(4-methylumbelliferone-7-yl phosphate), was used.
as §1
a. Dilantin S-peptide labeled analyte: Material prepared in the manner described in Examples V-VIII in 0.1M triethanolamine (TEA)-HCl buffer was used.
b. Antibody: Anti-dilantin antisera was diluted by a factor of 1/20 with 0.1M TEA-HCl buffer of pH 7.1;
c. Substrate: Seventeen milligrams of 5'-O-acetyl 2'-O-(tetrahydropyran-2-yl) uridine 3'-(4-methylumbelliferone-7-yl ammonium phosphate) was added to 750 ul 0.05N HCl and stirred at room temperature for 30 min. Sodium acetate buffer, (1.880 ml, 0.1M, pH 5..0), was added. Just before use, 300 ul of this solution was combined with 5.094 ml of 0.1M TEA-HCl buffer of pH 7.1;
d. S-protein: Sigma purified commercial material was diluted by a factor of 1:100 with 0.1M TEA-HCl buffer of pH 7.1 to give a solution having a concentration of 1.53×10^-6 M;
e. Dilantin standards: A stock solution of 5,5-diphenylhydantoin sodium salt (Sigma Lot 64C-0027) was made up by dissolving 48 mg in 1 liter of 0.025N sodium hydroxide. This was diluted by a factor of 1:10 with 0.025N sodium hydroxide to give a solution having 4.8 ug/ml. This was further diluted to give standard solutions having concentrations of 19.1, 47.8, 95.8, 143.6, and 191.5 ng/ml.
The CentrifiChem® 500 centrifugal fast analyzer had the following instrument settings: rotor temp, 30°; filter, nm; To, 10 sec; T, 1 min; ABS 1.0 u; Blank, hold; test mode, Term; print out, ABS; conc. factor, 0; test code 0.
Antibody, dilantin-S-peptide and 16.6 ul of the standard solution were pipetted into the sample well of channels to 16 of the transfer disc. S-protein and 300 ul of substrate were pipetted into each of the corresponding reagent wells of the transfer disc. The transfer disc was placed on the rotor and spun. […] Catalytic activity rates (a.u./min) were obtained frcm a least squares, regression analysis of absorbances as a function of time.

dilantin antibody [3] = experiment: Homogeneous immunoassay of dilantin standards and clinical samples, automatic data reduction (Example XXI); conditions: human serum
Method: This Example illustrates the design of an assay capable of directly assaying clinical samples, the use of the automatic pipetter (Model P-500) associated with the Centrifichem® 500 centrifugal fast analyzer, and the use of automatic data reduction.
The following reagents were utilized:
a. Labeled Analyte: Dilantin-S-peptide labeled analyte in 0.1 M triethanolamine (TEA)-HCl buffer, prepared in the manner described in Examples V-VIII was used.
b. Antibody: Anti-dilantin antiserum (150 ul) was diluted with 900 ul of 0.1M TEA-HCl buffer of pH 7.1;
c. Substrate: 5'-O-acetyl 2'-O-(tetrahydro pyran-2-yl) uridine 3'-(4-methylumbelliferone-7-yl ammonium phosphate) (6.4 mg) was added to 285.2 ul of 0.05N HCl and stirred at room temperature for 30 minutes. Sodium acetate buffer (714.8 ul, 0.1M, pH 5.0) was then added;
S-protein: A 12.3×10^-5 M solution of Sigma S-protein was made up in 0.1M TEA-HCl buffer (pH 7.1);
e. Dilantin standards: Solutions of 5, 5-diphenylhydantoin sodium salt (Sigma lot 64C-0027) were made up in human serum at concentrations of 2.5, 5.0, 10.0, 20.0 and 30.0 ug/ml.
A mixture of 16 ul S-peptide labeled analyte, 10 ul of human serum albumin, 1430 ul of TEA-HCl buffer, and the substrate solution described in (c.) was prepared (designated Reagent 1). A second mixture consisting of 150 ul of antiserum, 50 ul of S-protein, and 1937.5 ul of TEA buffer was prepared (designated Reagent 2). Using the CentrifiChem® P-500 automatic pipetter, 4 ul of the appropriate standard solution was simultaneously diluted with 45 ul of deionized H2 O and pipetted into the sample well of transfer disc. At the same time, the pipetter delivered 250 ul of Reagent 1 into the reagent well and 100 ul of Reagent 2 into the sample well. Instrumental parameters for the CentrifiChem® 500 centrifugal fast analyzer were the same as that for Example XX with the exception that Test Code 29 was used. This provides for automatic data reduction by the microprocessor unit of the CentrifiChem® 500 instrument.

## O=C1NC(=O)C(c2ccccc2)(c2ccccc2)N1 [dilantin, 5,5-diphenylhydantoin]
Dilantin antibody [1]; standard 2.5 (ug/ml)
  Rate, Mean: 10.0 na/min.
Dilantin antibody [1]; standard 5.0 (ug/ml)
  Rate, Mean: 10.5 na/min.
Dilantin antibody [1]; standard 10.0 (ug/ml)
  Rate, Mean: 14.0 na/min.
Dilantin antibody [1]; standard 20.0 (ug/ml)
  Rate, Mean: 16.5 na/min.
Dilantin antibody [1]; standard 30.0 (ug/ml)
  Rate, Mean: 19.0 na/min.
Dilantin antibody [1]; standard 40.0 (ug/ml)
  Rate, Mean: 20.5 na/min.
Dilantin antibody [2]; standard 19.1 ng/ml
  Rate: 0.0154 a.u./min and 0.0171 a.u./min
Dilantin antibody [2]; standard 47.8 ng/ml
  Rate: 0.0183 a.u./min and 0.0158 a.u./min
Dilantin antibody [2]; standard 95.8 ng/ml
  Rate: 0.0191 a.u./min and 0.0197 a.u./min
Dilantin antibody [2]; standard 143.6 ng/ml
  Rate: 0.0204 a.u./min and 0.0180 a.u./min
Dilantin antibody [2]; standard 191.5 ng/ml
  Rate: 0.0209 a.u./min and 0.0205 a.u./min
Dilantin antibody [3]; standard 2.5 ug/ml
  10^3 Response: 230 a.u. and 231 a.u.
Dilantin antibody [3]; standard 5 ug/ml
  10^3 Response: 252 a.u. and 256 a.u.
Dilantin antibody [3]; standard 10 ug/ml
  10^3 Response: 358 a.u. and 373 a.u.
Dilantin antibody [3]; standard 20 ug/ml
  10^3 Response: 512 a.u. and 494 a.u.
Dilantin antibody [3]; standard 30 ug/ml
  10^3 Response: 525 a.u. and 524 a.u.
